Three molecules from US8389514B2, “Cyanoaminoquinolones and tetrazoloaminoquinolones as GSK-3 inhibitors” (Kyorin Pharmaceutical Co., Ltd., priority 2007, dated 2013) can be followed below.

Experiment [1] concerns the target T1, recombinant full-length human GSK3β (Homo sapiens, UniProt P49841).
T1 construct: recombinant full-length human GSK3β (Upstate); purchased Upstate
In words: GSK3β enzyme cell free luciferase-coupled kinase assay. In kind it is biochemical. The note with it: 5 μM ATP. The procedure:
All coupled-luciferase assays are performed by using a brief incubation with firefly luciferase (Promega) after completion of the kinase assay. KinaseGlo Plus is used for reading kinase reactions with ATP>10 μM, KinaseGlo for ATP<10 μM. The assay volume in a 384-well plate for the kinase reaction is 30 microliters.
10-25 ng of recombinant full-length human GSK3β (Upstate) is incubated in the presence or absence of compound at varying concentrations for 1 hour at 30 degrees Celsius in 20 mM MOPS, pH 7.0, 10 mM magnesium acetate, 0.2 mM EDTA, 2 mM EGTA, 30 mM magnesium chloride, 62.5 μM phospho-glycogen synthase peptide-2, 5 μM ATP, 10 mM β-glycerol phosphate, 1 mM sodium orthovanadate and 1 mM dithiothreitol. Proceed to KinaseGlo luciferase reaction (see below).
Following the completion of the kinase reaction an equal volume of KinaseGlo or KinaseGlo Plus luciferase reagent (Promega) is added and the luminescence read using a luminescence plate reader within 5-10 minutes. Compound activity is expressed as % inhibition relative to maximal inhibition observed at the maximal dose and IC50 values then calculated using curve fitting software (GraphPad Prizm).

Another experiment has as its system S. aureus Smith. The experiment can be described thus: Antibacterial activity (MIC), S. aureus Smith. Type of experiment: cell-based. The conditions noted are these: Staphylococcus aureus. From the text: (§1) As used herein, a minimum inhibitory concentration (MIC) for bacterial growth assay is the lowest level of a compound needed to cause an inhibition to bacterial growth in culture medium. In certain embodiments, the antibacterial activity of compounds herein, measured as MIC.
(§2) In certain embodiments, GSK3 inhibitors provided herein are substantially free of antibacterial activity or having very low antibacterial activity. The antibacterial activity can be measured by methods known in the art by estimating a minimum inhibitory concentration (MIC) for test compounds. A MIC is the lowest level of a compound needed to cause an inhibition to bacterial growth in a culture medium. […] (Clinical and Laboratory Standards Institute. Methods for Dilution Antimicrobial Susceptibility Tests for Bacteria That Grow Aerobically; Approved Standard-Sixth Edition: CLSI document […]. CLSI, Wayne, Pa. (2003))
(§3) Antibacterial activity for E. coli, ATCC8739 and S. aures Smith is expressed as MIC (μM).

The test system of another experiment is E. coli, ATCC8739. The experiment can be described thus: Antibacterial activity (MIC), E. coli. In kind it is cell-based. The conditions noted are these: Escherichia coli.
From the text: as §1, §2, §3

A word on the IC50: it is the midpoint of a concentration-inhibition curve. As a reminder, the MIC is the least concentration at which growth counts as inhibited.

T1 sequence (P49841 whole entry): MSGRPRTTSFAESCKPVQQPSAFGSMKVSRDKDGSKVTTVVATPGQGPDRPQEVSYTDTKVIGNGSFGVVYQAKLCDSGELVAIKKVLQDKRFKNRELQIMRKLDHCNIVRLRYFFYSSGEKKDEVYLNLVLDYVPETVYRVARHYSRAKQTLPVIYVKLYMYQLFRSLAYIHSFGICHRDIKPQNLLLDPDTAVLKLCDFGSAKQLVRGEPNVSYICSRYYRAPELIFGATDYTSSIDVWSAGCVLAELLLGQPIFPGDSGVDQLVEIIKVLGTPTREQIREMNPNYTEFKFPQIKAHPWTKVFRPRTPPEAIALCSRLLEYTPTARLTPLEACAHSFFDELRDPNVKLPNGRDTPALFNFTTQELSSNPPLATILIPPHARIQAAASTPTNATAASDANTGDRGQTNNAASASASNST

As for `CCN(CCCNc1c(F)c(N)c2c(=O)c(-c3nnn[nH]3)cn3c2c1OC[C@@H]3C)c1ccccc1`, the IC50 in experiment [1] was in the range of 0.01 to 0.1 µM.

Turning to `C[C@H]1COc2c(NCCCn3ccnc3)c(F)c(N)c3c(=O)c(-c4nnn[nH]4)cn1c23`, the MIC in the experiment with S. aureus Smith was > 257 µM; in the experiment with E. coli, ATCC8739 it was > 257 µM. In addition, the concentration for half-maximal inhibition (IC50) in experiment [1] was in the range of 0.01 to 0.1 µM.

In the case of `C[C@H]1COc2c(NCCCc3ccccn3)c(F)c(N)c3c(=O)c(-c4nnn[nH]4)cn1c23`, the IC50 in experiment [1] is < 0.01 µM.
